Tests used:
[1] = Rat Carrageenan Foot Pad Edema Test; format: in vivo, Male Sprague-Dawley rats; details: oral, dosed 1 h before carrageenan, foot volume 3 h after carrageenan, vs placebo
Procedure: (§1) The carrageenan foot edema test was performed with materials, reagents and procedures essentially as described by Winter et al (Proc. Soc. Exp. Biol. Med., 111, 544 (1962)). Male Sprague-Dawley rats were selected in each group so that the average body weight was as close as possible. Rats were fasted with free access to water for over sixteen hours prior to the test. The rats were dosed orally (1 mL) with compounds suspended in vehicle containing 0.5% methylcellulose and 0.025% surfactant, or with vehicle alone. One hour later a subplantar injection of 0.1 mL of 1% solution of carrageenan/sterile 0.9% saline was administered and the volume of the injected foot was measured with a displacement plethysmometer connected to a pressure transducer with a digital indicator. Three hours after the injection of the carrageenan, the volume of the foot was again measured. The average foot swelling in a group of drug-treated animals was compared with that of a group of placebo-treated animals and the percentage inhibition of edema was determined (Otterness and Bliven, Laboratory Models for Testing NSAIDs, in Non-steroidal Anti-Inflammatory Drugs, (J. Lombardino, ed. 1985)).

[2] = Rat Carrageenan-induced Analgesia Test; format: in vivo, Male Sprague-Dawley rats; details: oral, inhibition of hyperalgesic foot withdrawal, 3 h after carrageenan
Procedure: as §1
The analgesia test using rat carrageenan was performed with materials, reagents and procedures essentially as described by Hargreaves et al (Pain, 32, 77 (1988)). […] The time until the rat withdraws its foot was then measured. […]

## CS(=O)(=O)c1ccc(-n2nc(C(F)(F)F)cc2-c2ccc(F)cc2)cc1 [Example 1, 5-(4-Fluorophenyl)-1-[4-(methylsulfonyl)phenyl]-3-(trifluoromethyl)pyrazole]
[1]
  RAT PAW EDEMA % Inhibition @ 10 mg/kg body weight: 38%
[2]
  ANALGESIA % Inhibition @ 20 mg/kg body weight: 37%

— patent US5475018A, “1,5-diphenyl pyrazole compounds for treatment of inflammation” (G. D. Searle & Co., priority 1993, dated 1995)
